# From patent US20210177814A1, “USE OF GUANABENZ OR DERIVATES THEREOF FOR THE TREATMENT OF TYPE I IFN-DEPENDENT PATHOLOGIES” (INSERM (Institut National de la Santé et de la Recherche …, priority 2018, published 2021)
# Experiments:
# [1] = test system: TLR9 signal transduction pathway; experiment: Phospho-flow detection of rpS6 phosphorylation after CpG exposure; type: cell-based; conditions: CAL-1 and human B cells, 15 min to 1 h of CpG exposure, data not shown
# [2] = test system: dendritic cells (TLR stimulation); experiment: IFN-β and IL-6 production by WT and GADD34ΔC/ΔC DCs stimulated with TLR ligands; type: cell-based, mouse; conditions: GBZ 50 μM
# Procedure: BM-derived DCs were differentiated in vitro from the bone marrow of 6-8 weeks old male mice, using either FLT3 ligand or GM-CSF. Flt3L-DCs were used for experiments between days 6 and 7. Flt3L was produced using B16-Flt3L hybridoma cells. Bone marrow progenitors were plated at 1.5 10^6 cells/ml, 4 ml/well in 6 well plate, and cultivated with RPMI (GIBCO), 10% FCS (Sigma Aldrich), 100 units/ml penicillin and 100 μg/ml streptomycin (GIBCO), 50 μM b-mercaptoethanol (VWR) and Flt3L. For sorted Flt3L-DCs, cells were gently harvested at day 7 with cold PBS 2% FCS, centrifuged 1200 rpm 5 min at 4° C., counted and stained with for 30 mins at 4° C. Cells were sorted with the FACS ARIASorp. Cells were kept on ice all the time. After sorting, cells were resuspended in supplemented Flt3L-DCs medium at the concentration of 0.2 0.10^6 cells/well and plated at in a 96 wells plate U bottom. GM-CSF DCs were produced and used for experiments at day 6 of differentiation.
# Splenocytes were dissociated injecting Liberase TL, followed by 25 min incubation at 37° C. Cells were washed using MACS buffer (PBS 1X+1% FBS+2 mM EDTA) and passed in a cell strainer 70 μm, then centrifuged 5 min at 450 RCF, 4° C. Red blood cells were lysed using the commercial buffer from eBioscience. Dendritic cells were purified using CD11c^+ positive selection kit from Miltenyi. Splenic DCs were then resuspended in the same medium as for Flt3L-DCs at 1.10^6 cells/ml and plated in a 12 wells plate, 2 ml×well. B lymphocytes were purified using B cell isolation kit, a negative selection kit from Miltenyi. B cells were then resuspended in a medium composed of RPMI (GIBCO), 10% FCS (Sigma Aldrich), lx glutamine, 1× non-essential amino acids, 10 mM HEPES (all the previous from GIBCO), 50 μM b-mercaptoethanol (VWR). Cells were plated at 1×10^6 cells/well in 96 well plate, flat.
# Mouse IFN-β quantification in culture supernatant was performed using the Mouse Interferon Beta ELISA kit (PBL InterferonSource); mouse IL-6, TNFα, IL-10, human TNFα and human IFNα were quantified using ELISA kit (eBioscience) respectively, according to manufacturer instructions.
# We have previously shown that GM-CSF-induced bone-marrow-derived DCs from GADD34^ΔC/ΔC mouse display limited capacity to express IFNβ and IL-6 in response to the dsRNA mimic polyriboinosinic:polyribocytidylic acid (poly(I:C)). We investigated whether this observation could be extended to other DC subsets and TLR ligands. WT and GADD34^ΔC/ΔC DC isolated directly from spleen or generated in vitro from bone-marrow progenitors, using either Flt3L- or GM-CSF-induced differentiation, were submitted to stimulation with LPS, poly(I:C) or CpG ODN and analyzed for IFN-β and IL-6 production (data not shown). […]
# endosomal TLRs = experiment: TMPD (pristane) + CpG ODN induced SLE model; type: in vivo, mouse
# Procedure: At day 7 mice were injected with CpG ODN 1585 (50 μg/20 g). Blood was collected once a month to dose the circulating autoantibodies level. Mice were sacrificed at week 24 after disease induction. (A) Flow cytometry analysis of peritoneum exudate cells populations (PEC) at day 14. […] Statistical significance was assigned using two tailed Student's t test (* p<0.05). (C) Level of circulating anti-RNA antibodies (normalized to control mice), anti-nuclear antibodies (arbitrary units), presence of lipogranulomas in the peritoneal cavity (arbitrary score) and glomerulopathy (histological score blindly determined by an anatomopathologist) at week 24. Statistical significance was assigned by a one-way ANOVA, followed by Tukey range test (* p<0.05;** p<0.005; ***p<0.0005.). N.S., not significant. n values in the figure indicate the number of mice.
# Wild type female mice C57BL/6 of 6 weeks of age were injected i.p. with 500 μL of TMPD (Sigma Aldrich) or PBS. From day 1 to day 13 mice were injected i.p. every 2 days with GBZ or PBS/DMSO 2 mg/kg. Mice were injected i.p. at day 7 with ODN 1585 or PBS 50 μg/20 g of mouse. Mice were sacrificed at day 14 or after 6 months. At day 14, peritoneal exudate cells (PEC) were taken for flow cytometry analysis. After 6 months kidneys were taken for immunohistochemistry. During 6 months, blood serum collection was effectuated once a month, from month 2 after the injection of TMPD up to one week before the animal sacrifice. Serum was used to evaluate the concentration of circulating autoantibodies. Anti-RNA ELISA. Evaluation of autoantibodies against RNA was performed by coating ELISA plates with 50 μl/well of 5 μg/ml mouse RNA or DNA in PBS and incubated overnight at 4° C. Next day, the plates were incubated with 1:50 or 1:100 diluted serum samples in working solution (PBS+0.05% Tween20+1% BSA), and the assay was developed with HRP-labeled goat anti-mouse IgG (Southern Biotech).
# Mouse kidney and liver were fixed in 10% buffered formalin for 24 h, then the tissues were dehydrated and embedded in paraffin. Tissue sections of 3.5 μm were cut using the microtom Leica RM2245. Hematoxylin-eosin staining was effectuated automatically with Leica autostainer XL. Finally, the slides were mounted with entellan and kept at room temperature. Biopsies were analyzed by an anatomopathologist and the clinical score was assigned in a blinded way. Pictures were taken with Nikon Eclipse.
# [3] = GADD34ΔC/ΔC Flt3L-DCs, CpG ODN stimulation
# [4] = 22 weeks after TMPD injection, vs TMPD and CpG only
smiles,measurement,setting,value
"NC(N)=N/N=C/c1c(Cl)cccc1Cl [GBZ, 2-(2,6-dichlorobenzylidene)-hydrazinecarboximidamide]",rpS6 phosphorylation,[1],strong reduction
same,IFN-β production,[2]; [3],incapable of producing
same,IL-6 production,[2]; [3],incapable of producing
same,IFN-β production in response to TLR9 stimulation compared with Gadd34 genetic inactivation,[2]; data not shown,far stronger capacity to inhibit
same,IL-6 production compared with Gadd34 genetic inactivation,[2]; data not shown,superimposable to GADD34 deficiency
same,circulating anti-RNA immunoglobulins titer,endosomal TLRs; [4],substantially lower
same,circulating anti-nuclear immunoglobulins titer,endosomal TLRs; [4],substantially lower
same,Ig-complexes deposits in the kidneys (glomerulonephritis),"endosomal TLRs; C57BL/6, control vs GBZ-treated animals",unable to induce overall sufficient glomerulonephritis to observe significant differences
same,lipogranulomas in the peritoneal cavity,endosomal TLRs; GBZ-treated vs TMPD and CpG only,considerably smaller numbers
same,"transcriptional up-regulation of TNF-α, ISG 15 and CH25H in PECs (qPCR)","endosomal TLRs; TMPD+CpG injected mice, recurrent GBZ injections",strongly inhibited
same,immune cells migration into or from the peritoneal cavity (PEC flow cytometry),"endosomal TLRs; day 14, GBZ 2 mg/kg i.p. every 2 days, day 1 to 13",did not prevent
